What all share (assay type): in vivo
Series [1] has as its system winter wheat, TRZAW. In words: Method C: safener seed treatment, herbicide and safener tank mix post-emergence, visual % crop damage. As to the method:
(§1) For the safener seed treatment, sufficient seeds were weighed into screw top glass bottles approximately twice the volume of the seeds.
(§2) The safener (mefenpyr-diethyl, formulated as suspension concentrate (SC)) was weighed out so that the required rates (g a.i./kg seed) would be obtained, dissolved in water (1 ml water per 10 g of seeds), and added to the seeds to produce a slurry.
(§3) The bottles were capped and then placed in an overhead shaker (set at medium speed for up to 1 hour) so that the seeds were evenly coated with the slurry. The bottles were uncapped and the seeds were sown as described above.
(§4) For the seed treatment process, the blind formulation (the SC formulation without the safener mefenpyr-diethyl) was used as seed treatment as described above.
Post-emergence application was done when the plants had reached growth stage BBCH11.
The safener (mefenpyr-diethyl) was formulated as wettable powder (WP).
(§5) The combination of herbicide and safener was applied as a tank mix.
(§6) After application, the test plants were kept in the greenhouse under good growth conditions.
(§7) Values in the table below are mean values from at least 3 replicates.

The subject of series [2] is winter wheat, TRZAW. In words: Method A: safener seed treatment, herbicide post-emergence, visual % crop damage. Particulars: safener seed treatment 0.5 g/kg only, no herbicide. Here is the method:
as §1, §2, §3, §4
Post-emergence application of the herbicide was done when the plants had reached growth stage BBCH11.
as §6, §7

For series [3], the system named is winter wheat, TRZAW. In words: Method D: safener seed treatment, herbicide and safener tank mix pre-emergence, visual % crop damage. Here is the method: as §1, §2, §3, §4, §5, §6, §7
Where [4] appears, read: safener seed treatment 0.5 g/kg only, no herbicide.

Consider `CCOC(=O)C1=NN(c2ccc(Cl)cc2Cl)C(C)(C(=O)OCC)C1` (centres unmarked) [Safener seed treatment, ethyl 1-(2,4-dichlorophenyl)-5-(ethoxycarbonyl)-5-methyl-2-pyrazoline-3-carboxylate], for which the “% crop damage” value in series [1] (safener 200 g/ha in tank mix only, post-emergence, 14 days after application) stood at 5%; in series [1] (setting [4]), 0%; in series [2], 0%; in series [3] (safener 200 g/ha in tank mix only, pre-emergence, 14 days after application), 5%; in series [3] (setting [4]), 2%.

Values taken from patent US20210227824A1, “METHOD OF REDUCING CROP DAMAGE” (Bayer Aktiengesellschaft, priority 2018, published 2021).
